Experimental data from US8389011B2, “Pharmaceutical compositions of cholesteryl ester transfer protein inhibitors” (Bend Research, Inc., priority 2000, dated 2013).

Assay: In vitro dissolution test, microcentrifuge method, in phosphate buffered saline (PBS) pH 6.5
Type: physicochemical
Conditions: for Concentration / AUC: Table 18, Drug 10 or Drug 11, PBS pH 6.5, 37° C., TCmax 1000 μg/mL
Procedure: The compositions comprising the CETP inhibitor and concentration-enhancing polymer provide enhanced concentration of the dissolved CETP inhibitor in in vitro dissolution tests. […] An appropriate PBS solution is an aqueous solution comprising 20 mM sodium phosphate (Na2HPO4), 47 mM potassium phosphate (KH2PO4), 87 mM NaCl, and 0.2 mM KCl, adjusted to pH 6.5 with NaOH. An appropriate MFD solution is the same PBS solution wherein additionally is present 7.3 mM sodium taurocholic acid and 1.4 mM of 1-palmitoyl-2-oleyl-sn-glycero-3-phosphocholine. In particular, a composition of the present invention can be dissolution-tested by adding it to MFD or PBS solution and agitating to promote dissolution.
Indeed, for some extremely insoluble CETP inhibitors, in order to identify the MDC achieved it may be necessary to use an amount of test composition such that if all of the CETP inhibitor dissolved, the CETP inhibitor concentration would be 10,000-fold or even more, that of the equilibrium concentration of the CETP inhibitor.
The MDC is taken to be the maximum value of dissolved CETP inhibitor measured over the duration of the test.
Filtration can be conducted using a 13 mm, 0.45 μm polyvinylidine difluoride syringe filter sold by Scientific Resources under the trademark TITAN®. Centrifugation is typically carried out in a polypropylene microcentrifuge tube by centrifuging at 13,000 G for 60 seconds. Other similar filtration or centrifugation methods can be employed and useful results obtained.
The spray-dried dispersions of Examples 6 and 7 were evaluated in an in vitro dissolution test using a microcentrifuge method. In this test, the spray-dried dispersion was added to a microcentrifuge tube for a Drug 2 dose of about 1000 μg/mL (7.2 mg for Example 6, 18 mg for Example 7). The tube was placed in a 37° C. sonicating bath, and 1.8 mL phosphate buffered saline (PBS) at pH 6.5 and 290 mOsm/kg was added. The samples were quickly mixed using a vortex mixer for about 60 seconds. The samples were centrifuged at 13,000 G at 37° C. for 1 minute. The resulting supernatant solution was then sampled and diluted 1:6 (by volume) with methanol and then analyzed by high-performance liquid chromatography (HPLC). The contents of the tubes were mixed on the vortex mixer and allowed to stand undisturbed at 37° C. until the next sample was taken. Samples were collected at 4, 10, 20, 40, 90, and 1200 minutes.
For Control 2, an in vitro dissolution test was performed using the procedures described above except that 1.8 mg of crystalline Drug 2 was used.
In this method, 7.2 mg of each spray-dried dispersion was added to a 2-mL microcentrifuge tube. The tube was placed in a 37° C. sonicating bath, and 1.8 mL of a phosphate-buffered saline (PBS) solution at pH 6.5 and 290 mOsm/kg was added, resulting in a TCmax of 400 μg/mL. The samples were quickly mixed using a combination of vortex mixer and sonication for about 90 seconds. The samples were centrifuged at 13,000 G at 37° C. for 1 minute. The resulting supernatant solution was then sampled and diluted 1:6 (by volume) with methanol and then analyzed by HPLC. The tubes were then mixed on the vortex mixer and allowed to stand undisturbed at 37° C. until the next sample. Samples were collected at 4, 10, 20, 40, 90 and 1200 minutes.
For Control 5, an in vitro dissolution test was performed using the procedure described above, except that 0.72 mg of non-crystalline Drug 3 was placed in a microcentrifuge tube and mixed with 1.8 mL of PBS.
In this method, 15 mg of each SDD was added to a 2-mL microcentrifuge tube. The tube was placed in a 37° C. sonicating bath, and 1.5 mL of a phosphate-buffered saline (PBS) solution at pH 6.5 and 290 mOsm/kg) was added, resulting in a TCmax of 1000 μg/mL. The samples were quickly mixed using a combination of vortex mixer and sonication for about 90 seconds.

[1] = Table 19: Drugs 10 and 11, PBS pH 6.5, TCmax 1000 μg/mL

CC(C)c1cc2c(c(-c3ccc(F)cc3)c1[C@@H](F)c1ccc(C(F)(F)F)cc1)[C@@H](O)CC1(CCC1)C2 [Control 12, (4′S)-5′-(4-fluorophenyl)-6′-[(S)-fluoro[4-(trifluoromethyl)phenyl]methyl]-3′,4′-dihydro-7′-(1-methylethyl)-spiro[cyclobutane-1,2′(1′H)-naphthalen]-4′-ol]
Concentration (0 min): 0 ng/mL
Concentration (4 min): 0 ng/mL
Concentration (10 min): 1000 ng/mL
Concentration (20 min): 3000 ng/mL
Concentration (40 min): 6000 ng/mL
Concentration (90 min): 1000 ng/mL
Concentration (1200 min): 0 ng/mL
AUC (to 0 min): 0 min-μg/mL
AUC (to 4 min): 0 min-μg/mL
AUC (to 10 min): 0 min-μg/mL
AUC (to 20 min): 0 min-μg/mL
AUC (to 40 min): 100 min-μg/mL
AUC (to 90 min): 300 min-μg/mL
AUC (to 1200 min): 1,100 min-μg/mL
AUC90 [1]: 300 min-μg/mL
Cmax, 90 [1]: 6000 ng/mL

CCc1cc(Oc2cccc(N(Cc3cccc(OC(F)(F)C(F)F)c3)C[C@@H](O)C(F)(F)F)c2)ccc1Cl [Control 13, (2R)-3-[[3-(4-chloro-3-ethylphenoxy)phenyl][[3-(1,1,2,2-tetrafluoroethoxy)phenyl]methyl]amino]-1,1,1-trifluoro-2-propanol]
Concentration (0 min): 0 ng/mL
Concentration (4 min): 1000 ng/mL
Concentration (10 min): 1000 ng/mL
Concentration (20 min): 1000 ng/mL
Concentration (40 min): 1000 ng/mL
Concentration (90 min): 1000 ng/mL
Concentration (1200 min): 0 ng/mL
AUC (to 0 min): 0 min-μg/mL
AUC (to 4 min): 0 min-μg/mL
AUC (to 10 min): 0 min-μg/mL
AUC (to 20 min): 0 min-μg/mL
AUC (to 40 min): 0 min-μg/mL
AUC (to 90 min): 100 min-μg/mL
AUC (to 1200 min): 600 min-μg/mL
AUC90 [1]: 80 min-μg/mL
Cmax, 90 [1]: 1000 ng/mL

CC[C@@H]1C[C@H](N(Cc2cc(C(F)(F)F)cc(C(F)(F)F)c2)C(=O)OC)c2cc(C(F)(F)F)ccc2N1C(=O)OC(C)C [Control 14, [2R,4S]4-[(3,5-bis-trifluoromethyl-benzyl)-methoxycarbonyl-amino]-2-ethyl-6-trifluoromethyl-3,4-dihydro-2H-quinoline-1-carboxylic acid isopropyl ester]
AUC90 (Table 34: Drug 12, PBS): <88 min-μg/mL
Cmax, 90 (Table 34: Drug 12, PBS): <1000 ng/mL
